Reference: patent US20070270400A1, “New compounds 303” (priority 2006, published 2007)

How the values were obtained:
human NK3 receptor = target: T1, human NK3 receptor (Homo sapiens, UniProt P29371); experiment: FLIPR assay, inhibition of human NK3 receptor activation (intracellular Ca2+); type: cell-based; conditions: CHO cells with human NK3 receptor, agonist Pro-7-NKB; pKB converted from IC50
T1 construct: expressed in transfected cells
T1 sequence (P29371 1-465): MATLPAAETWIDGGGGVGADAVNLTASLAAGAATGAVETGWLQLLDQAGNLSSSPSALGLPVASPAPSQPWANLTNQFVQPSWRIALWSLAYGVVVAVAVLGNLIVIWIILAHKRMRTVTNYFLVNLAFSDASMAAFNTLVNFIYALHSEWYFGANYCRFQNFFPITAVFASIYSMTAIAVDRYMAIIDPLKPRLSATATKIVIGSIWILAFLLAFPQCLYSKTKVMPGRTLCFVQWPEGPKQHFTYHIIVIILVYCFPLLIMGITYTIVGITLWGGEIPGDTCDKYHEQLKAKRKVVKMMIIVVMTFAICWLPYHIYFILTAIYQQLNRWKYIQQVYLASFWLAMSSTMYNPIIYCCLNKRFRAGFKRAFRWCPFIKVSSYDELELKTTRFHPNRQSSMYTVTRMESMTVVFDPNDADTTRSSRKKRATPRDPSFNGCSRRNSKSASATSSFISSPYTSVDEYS
Protocol: (§1) Chinese Hamster Ovary (CHO) K1 cells (obtained from ATCC) were stably transfected with the human NK2 receptor (hNK2R cDNA in pRc/CMV, Invitrogen) or the human NK3 receptor (hNK3R in pcDNA 3.1/Hygro (+)/IRES/CD8, Invitrogen vector modified at AstraZeneca EST-Bio UK, Alderley Park). The cells were transfected with the cationic lipid reagent LIPOFECTAMINE™ (Invitrogen) and selection was performed with Geneticin (G418, Invitrogen) at 1 mg/ml for the hNK2R transfected cells and with Hygromycin (Invitrogen) at 500 μg/ml for the hNK3R transfected cells. Single cell clones were collected by aid of Fluorescence Activated Cell Sorter (FACS), tested for functionality in a FLIPR assay (see below), expanded in culture and cryopreserved for future use. […]
(§2) The activity of a compound of the invention to inhibit NK1/NK2/NK3 receptor activation measured as NK1/NK2/NK3 receptor mediated increase in intracellular Ca^2+ was assessed by the following procedure:
(§3) CHO cells stably transfected with human NK1, NK2 or NK3 receptors were plated in black walled/clear bottomed 96-well plates (Costar 3904) at 3.5×10^4 cells per well and grown for approximately 24 h in normal growth media in a 37° C. […] The response was measured as the peak relative fluorescence after agonist addition and IC50s were calculated from ten-point concentration-response curves for each compound. […]

human NK1 receptor = target: T2, human NK1 receptor (Homo sapiens, UniProt P25103); experiment: FLIPR assay, inhibition of human NK1 receptor activation (intracellular Ca2+); type: cell-based; conditions: CHO cells with human NK1 receptor, agonist Substance P; pKB converted from IC50
T2 construct: expressed in transfected cells; AstraZeneca R&D Wilmington), pRcCMV vector
Protocol: as §1, §2, §3

human NK2 receptor = target: T3, human NK2 receptor (Homo sapiens, UniProt P21452); experiment: FLIPR assay, inhibition of human NK2 receptor activation (intracellular Ca2+); type: cell-based; conditions: CHO cells with human NK2 receptor, agonist NKA; pKB converted from IC50
T3 construct: expressed in transfected cells
T3 sequence (P21452 1-398): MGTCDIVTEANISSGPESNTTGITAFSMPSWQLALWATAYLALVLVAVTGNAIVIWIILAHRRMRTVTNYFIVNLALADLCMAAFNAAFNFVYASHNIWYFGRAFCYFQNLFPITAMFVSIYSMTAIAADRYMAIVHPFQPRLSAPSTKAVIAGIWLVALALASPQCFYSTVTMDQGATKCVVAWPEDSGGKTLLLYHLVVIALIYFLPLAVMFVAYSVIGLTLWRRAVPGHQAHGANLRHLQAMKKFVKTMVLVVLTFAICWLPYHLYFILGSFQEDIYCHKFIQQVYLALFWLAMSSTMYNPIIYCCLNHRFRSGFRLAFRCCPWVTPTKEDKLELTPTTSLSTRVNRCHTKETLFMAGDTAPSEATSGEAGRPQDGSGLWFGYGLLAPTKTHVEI
Protocol: as §1, §2, §3

[1] = Metabolic stability in liver microsomes (intrinsic clearance); type: in vitro ADME; conditions: human, pH 7.4, HLM
Protocol: The rate of biotransformation can be measured as either metabolite(s) formation or the rate of disappearance of the parent compound. The experimental design involves incubation of low concentrations of substrate (usually 1.0 μM) with liver microsomes (usually 0.5 mg/ml) and taking out aliquotes at varying time points (usually 0, 5, 10, 15, 20, 30, 40 min.). The test compound is usually dissolved in DMSO. The DMSO concentration in the incubation mixture is usually 0.1% or less since more solvent can drastically reduce the activities of some CYP450s. Incubations are done in 100 mM potassium phosphate buffer, pH 7.4 and at 37° C. Acetonitrile or methanol is used to stop the reaction. The parent compound is analysed by HPLC-MS. From the calculated half-life, t1/2, the intrinsic clearance, Clint, is estimated by taking microsomal protein concentration and liver weight into account.

CYP3A4 = CYP3A4 (Homo sapiens, UniProt P08684); experiment: CYP3A4 inhibition according to Bapiro et al; type: in vitro ADME
Protocol: The IC50 values tested according to Bapiro et al; Drug Metab. Dispos. 29, 30-35 (2001) were generally greater than 15 μM.

[2] = target: hERG-encoded potassium channel (Homo sapiens, UniProt Q12809); experiment: Activity against hERG, planar-array-based voltage clamp; type: cell-based
Description: The activity of compounds according to formula I against the hERG-encoded potassium channel can be determined according to Kiss L, et al. Assay Drug Dev Technol. 1 (2003), 127-35: “High throughput ion-channel pharmacology: planar-array-based voltage clamp”.

Chain of hERG-encoded potassium channel (Q12809 whole entry): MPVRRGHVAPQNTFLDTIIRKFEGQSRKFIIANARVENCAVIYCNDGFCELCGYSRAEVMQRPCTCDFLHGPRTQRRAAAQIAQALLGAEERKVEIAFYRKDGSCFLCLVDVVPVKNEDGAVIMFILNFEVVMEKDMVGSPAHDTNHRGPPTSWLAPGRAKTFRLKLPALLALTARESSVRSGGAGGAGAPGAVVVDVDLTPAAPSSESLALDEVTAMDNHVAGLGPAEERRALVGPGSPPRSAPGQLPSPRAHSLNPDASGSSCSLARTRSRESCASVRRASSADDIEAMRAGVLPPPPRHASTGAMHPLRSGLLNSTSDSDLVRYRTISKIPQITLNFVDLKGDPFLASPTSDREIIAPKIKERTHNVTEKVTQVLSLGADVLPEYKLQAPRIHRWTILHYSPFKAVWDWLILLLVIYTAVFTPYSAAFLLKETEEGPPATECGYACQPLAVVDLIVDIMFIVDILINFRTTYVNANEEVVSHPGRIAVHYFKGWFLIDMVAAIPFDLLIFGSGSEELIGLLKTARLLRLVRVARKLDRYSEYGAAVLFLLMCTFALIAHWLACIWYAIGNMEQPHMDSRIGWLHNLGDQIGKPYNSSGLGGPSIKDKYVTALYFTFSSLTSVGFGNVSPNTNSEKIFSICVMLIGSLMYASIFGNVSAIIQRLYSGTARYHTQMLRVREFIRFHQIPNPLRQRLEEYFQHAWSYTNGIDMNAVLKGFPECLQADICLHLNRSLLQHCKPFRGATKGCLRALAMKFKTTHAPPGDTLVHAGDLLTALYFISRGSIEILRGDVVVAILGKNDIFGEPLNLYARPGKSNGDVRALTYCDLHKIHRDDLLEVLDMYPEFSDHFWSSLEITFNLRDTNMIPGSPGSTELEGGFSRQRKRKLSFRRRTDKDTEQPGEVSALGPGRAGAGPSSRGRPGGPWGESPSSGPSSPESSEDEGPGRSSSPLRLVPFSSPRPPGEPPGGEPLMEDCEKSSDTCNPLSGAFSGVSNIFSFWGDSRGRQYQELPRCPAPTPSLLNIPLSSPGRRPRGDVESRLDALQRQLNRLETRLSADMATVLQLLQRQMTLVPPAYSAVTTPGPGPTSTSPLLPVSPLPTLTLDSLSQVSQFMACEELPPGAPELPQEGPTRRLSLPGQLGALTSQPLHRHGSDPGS
T2 sequence (P25103 whole entry): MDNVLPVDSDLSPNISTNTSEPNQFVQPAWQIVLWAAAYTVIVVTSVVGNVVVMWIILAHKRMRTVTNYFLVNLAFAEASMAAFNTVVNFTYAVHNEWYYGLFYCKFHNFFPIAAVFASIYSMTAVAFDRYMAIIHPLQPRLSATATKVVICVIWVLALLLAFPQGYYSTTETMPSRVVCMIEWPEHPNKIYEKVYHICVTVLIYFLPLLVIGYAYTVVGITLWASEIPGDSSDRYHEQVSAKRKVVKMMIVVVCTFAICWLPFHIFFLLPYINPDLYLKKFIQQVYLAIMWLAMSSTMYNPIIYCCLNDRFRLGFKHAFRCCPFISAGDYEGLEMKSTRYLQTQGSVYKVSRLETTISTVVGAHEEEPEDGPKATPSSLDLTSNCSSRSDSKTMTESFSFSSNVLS
Chain of CYP3A4 (P08684 whole entry): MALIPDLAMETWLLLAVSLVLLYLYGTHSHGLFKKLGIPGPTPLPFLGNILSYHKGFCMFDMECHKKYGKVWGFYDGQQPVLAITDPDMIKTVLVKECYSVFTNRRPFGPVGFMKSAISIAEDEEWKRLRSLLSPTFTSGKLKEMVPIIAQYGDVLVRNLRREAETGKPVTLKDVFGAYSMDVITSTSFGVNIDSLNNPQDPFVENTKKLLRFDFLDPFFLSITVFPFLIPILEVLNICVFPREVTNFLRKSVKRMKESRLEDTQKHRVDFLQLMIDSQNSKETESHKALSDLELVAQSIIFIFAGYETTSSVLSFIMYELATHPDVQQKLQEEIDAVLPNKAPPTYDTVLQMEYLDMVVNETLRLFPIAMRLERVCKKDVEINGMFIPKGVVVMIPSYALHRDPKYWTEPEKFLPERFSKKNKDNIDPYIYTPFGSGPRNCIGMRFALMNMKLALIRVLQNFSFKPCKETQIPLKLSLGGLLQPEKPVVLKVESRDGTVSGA

Kb (human NK3 receptor): 63.1 nM
Kb (human NK1 receptor): 10 nM
Kb (human NK2 receptor): 31.6 nM
microsomal CLint at 1 μM [1]: 36 µL/min/mg
IC50 (CYP3A4): 18300 nM
Structure (SMILES): CC(C)C(=O)N1CCN(C2CN(CC[C@H](CN(C)C(=O)c3cc(Cl)cc(C(F)(F)F)c3)c3ccc(F)cc3)C2)CC1 [Ex 2, 3-Chloro-N-{(2S)-2-(4-fluorophenyl)-4-[3-(4-isobutyrylpiperazin-1-yl)azetidin-1-yl]butyl}-N-methyl-5-(trifluoromethyl)benzamide]
IC50 [2]: 6600 nM
